{
  "source": "patent US20260152777A1",
  "about": "“METHOD FOR PRODUCING EPIGALLOCATECHIN GALLATE MONOGLUCOSIDE” (GIVAUDAN SA, priority 2022, published 2026)",
  "key": {"[1]": {"test_system": "female Caucasian volunteers presenting brown spots on their hands", "assay": "Clinical study: age-spot removal by Raman spectroscopy (skin background fluorescence, melanin detection)", "assay_type": "in vivo, human", "conditions": "for Melanin detection Mean +/− SD / Melanin detection TBX − TB0: hands, twice daily, Caucasian women", "experimental": "A double blind and placebo controlled clinical evaluation was carried out on 45 female Caucasian volunteers aged from 45 to 75 years. The volunteers were presenting brown spots on their hands. All the subjects participating in the study gave their informed consent at the beginning of the study. […] At D0 and D56, the anti-spot efficacy was analyzed by Raman spectroscopy. The compositions described in Example 12 were used. The set-up included a confocal Raman probe coupled to a dispersive Raman spectrograph. The excitation laser beam was sent to the remote probe via a 5 μm core-diameter fiber and the Raman signal was conveyed to the spectrograph via a 100 μm core-diameter fiber. The probe was equipped with a 100× long working distance objective operating in air. A piezo-electric device allowed to collect Z Raman profiles by assuring axial measurements from the surface down to a defined depth in the skin. A color video camera integrated in the probe permitted to visualize the skin surface. This camera is also useful to control the focalization of the laser on the skin. The spectrograph was equipped with a CCD (Coupled Charge Detector) of 1024×256 elements cooled by Peltier effect, and an 830 grooves/mm grating, which allows to cover a large spectral range from 550 to 3700 cm^−1 in a single shot acquisition, with a spectral resolution of about 6 cm^−1. The excitation source was a 660 nm laser diode and the power at the sample was set to 30 mW in accordance with protection standards for radiation. For protection against laser radiation, protective glasses were used. The 660 nm excitation was chosen as the optimal compromise between generation of parasitic fluorescence and sensitivity of the CCD camera over the whole spectral range. For skin characterization, the measurement of high wavenumber vibrations is important to access information on water content. For data acquisition, the device was controlled by the Labspec 5 software. The Z profiles consist of an in-depth scanning through the skin. Raman spectra were collected at different focus points, from skin surface Z=0 μm to 30 μm (under the skin surface) with 3 μm steps. The measurement depths are indicated in the following table with the corresponding acquisition times, leading to a time of 1 min for a complete profile. In total, 519 Raman profiles were recorded: 2 profiles per condition and for each area (unstained area and brown spot area). Each profile comprises 14 spectra, resulting in recorded 7266 spectra. These measurements were used for the evaluation of the spectroscopic marker of skin background fluorescence. This marker is associated with the degree of skin lightening: A decrease in this marker indicates a positive skin lightening effect, whereas a stability or an increase in this marker means that the product has no lightening effect on the skin. The pre-processing of spectral data was performed using Matlab 7.2 (The MathWorks Inc., USA). Aberrant profiles (bad S/N (signal/noise) ratio, fluorescence, incomplete profile with a large zero offset, saturation . . . ) were excluded from the data base. Each non-aberrant profile was submitted to background corrections, which allowed to clean up the Raman signal of the skin. These background corrections included smoothing spectra with a 9-mm Savitzky-Golay filter, spikes correction, […] the normalization on the intensity of the entire wavenumber range with a vectorial function. A baseline correction was not done in order to preserve the skin background fluorescence, which allows for the extraction of the skin fluorescence markers associated with the degree of skin lightening. After these pre-processing steps, corrected data were used to determine the spectra corresponding to the Stratum corneum surface. […] The skin properties were evaluated using Raman spectroscopy after 28 and 56 days of twice daily application."}, "[2]": {"test_system": "Lactobacillus acidophilus", "assay": "Growth promotion of Lactobacillus acidophilus (OD600)", "assay_type": "cell-based", "conditions": "MRS broth 50% in PBS, 48 hours, anaerobic", "experimental": "In order to further investigate the effect of the active of the present invention on bacteria, the growth of Lactobacillus acidophilus in MRS medium supplemented with different concentrations of EGCG MONOG was evaluated for 48 hours.\nL. acidophilus (DSM 20079) was cultivated at 37° C. under anaerobic conditions on De Man, Rogosa Sharpe (MRS) agar. After bacterial amplification in culture medium, for each bacterial strain, a bacterial suspension was prepared using the assay medium (MRS broth 50% in PBS) and adjusted to an optical density at 600 nm (OD600 nm) of 0.2. The bacterial suspension was then transferred to 96-well plates, some of which contained the test compounds from 0.015% to 1%. The strain cultivated with powdered milk at 0.01% served as a positive control.\nBacterial cultures were incubated at 37° C. under agitation (˜280 rpm) and under anaerobic condition. OD600 nm were read in kinetic for 48 hours using a microplate spectrophotometer (EPOCH2, BioTek Instruments) to analyze the bacterial growth.\nAll experimental conditions were performed in triplicate."}, "[3]": {"test_system": "female volunteers with a dark skin type (phototype IV or more) and dull skin", "assay": "Clinical evaluation on African skin: skin color by Chromameter L* parameter", "assay_type": "in vivo, human", "conditions": "cream 0.4%, full face twice daily; for increase of L* on uneven skin tone area: dark skin type", "experimental": "The clinical study was carried out on 85 female volunteers aged from 19 to 47 years, which were divided in three groups: active, placebo and aglycone. The study was performed in South Africa on female volunteers with a dark skin type (phototype IV or more) and dull skin. All participants provided signed informed consent at the beginning of the study. The study was conducted according to the guidelines of the Declaration of Helsinki. […] Skin color evolution was measured after 14, 28 and 56 days using L* parameter measurement by Chromameter®.\nThe skin color was evaluated by means of a Chromameter CR400, which measures skin color, and the parameter L* (lightness) was recorded. The greater the value, the lighter the skin color. Depending on the test type, at least three or at least 15 readings were taken at each test sub-site for each time interval to serve as the specific pigmentation sport color measurement component of the study. Skin color was analyzed at D0, D14, D28 and D56.\nFor all studies in vivo, a Shapiro Wilk test was used to verify whether the raw data followed the Gaussian Law. In case of Normally-distributed data, the mean values were compared using either an unpaired or paired t student test. In case of non-Normally-distributed data, a Wilcoxon (paired) and Kruskal-Wallis test followed by a Mann-Whitney U (unpaired) test were used for paired data and unpaired data, respectively."}},
  "data": [
    {"smiles": "O=C1O[C@H]([C@@H](O)CO)C(O)=C1O", "note": "[Ascorbic acid, ascorbic acid]", "values": [
      {"measurement": "Melanin detection Mean +/− SD", "setting": "[1]; ascorbic acid at 2%, D 0 (baseline)", "result": "49.80 ± 13.13", "unit": "arbitrary unit"},
      {"measurement": "Melanin detection Mean +/− SD", "setting": "[1]; ascorbic acid at 2%, D 28", "result": "52.05 ± 11.23", "unit": "arbitrary unit"},
      {"measurement": "Melanin detection TBX − TB0", "setting": "[1]; ascorbic acid at 2%, D 28", "result": "+2.25 a.u"},
      {"measurement": "Melanin detection Mean +/− SD", "setting": "[1]; ascorbic acid at 2%, D 56", "result": "32.28 ± 10.43", "unit": "arbitrary unit"},
      {"measurement": "Melanin detection TBX − TB0", "setting": "[1]; ascorbic acid at 2%, D 56", "result": "−17.52", "unit": "a.u"}
    ]},
    {"smiles": "O=C(O[C@@H]1Cc2c(O)cc(O)cc2O[C@@H]1c1cc(O)c(O[C@H]2O[C@H](CO)[C@@H](O)[C@H](O)[C@H]2O)c(O)c1)c1cc(O)c(O)c(O)c1", "note": "[epigallocatechin gallate 4′-O-α-monoglucoside]", "values": [
      {"measurement": "increase of growth of Lactobacillus acidophilus vs culture without EGCG MONOG", "setting": "[2]; 0.13%", "result": 6, "unit": "%"},
      {"measurement": "increase of growth of Lactobacillus acidophilus vs culture without EGCG MONOG", "setting": "[2]; 0.4%", "result": 9, "unit": "%"},
      {"measurement": "increase of growth of Lactobacillus acidophilus vs culture without EGCG MONOG", "setting": "[2]; 1%", "result": 27, "unit": "%"},
      {"measurement": "reduction of skin heterogeneity", "setting": "[1]; Caucasian volunteers having pigmented spots on their hands", "result": "up to −24%"},
      {"measurement": "Melanin detection TBX − TB0", "setting": "[1]; product with 0.4% purified preparation, D 28", "result": "−10.2", "unit": "a.u"},
      {"measurement": "Melanin detection TBX − TB0", "setting": "[1]; product with 0.4% purified preparation, D 56", "result": "−20.4", "unit": "a.u"},
      {"measurement": "increase of L*, global skin color, 15 measurements on hemi face", "setting": "[3]; dark skin type, 14, 28 and 56 days", "result": "up to +6.8%"},
      {"measurement": "increase of L* on uneven skin tone area", "setting": "[3]; after 14 days", "result": "+1.3%"},
      {"measurement": "increase of L* on uneven skin tone area", "setting": "[3]; after 28 days", "result": "+4.7%"},
      {"measurement": "increase of L* on uneven skin tone area", "setting": "[3]; after 56 days", "result": "+6.3%"}
    ]}
  ]
}
